# Measurements reported in ChEMBL document CHEMBL3507680, “University of Dundee, Gates Library screen for HepG2 cell viability”.
# Assay: Human HepG2 cell viability assay in 384 well format
# Assay type: toxicity, cell-based
# Design: dose 125 nL, time 70.5 hour; cytotoxicity at 70.5 h: concentration not given beside the values
# Conditions: HepG2 cells, read-out: Inhibition
row,SMILES,cytotoxicity at 70.5 h [%]
1,CNC(=O)CN([C@H]1C[C@H]2CCOC[C@H]2C1)S(=O)(=O)c1ccccc1,-5.55
2,O=C(O)CN(C(=O)c1ccccc1)[C@H]1C[C@H]2CCOC[C@H]2C1,-10.1
3,OC[C@@H]1CN2CCN(c3ccccn3)C[C@@H]2[C@H]1c1ccccc1,-7.31
4,CN1CC[C@H](N(Cc2ccccc2)Cc2ccccc2)C[C@H](O)C1,11.2
5,CN1C[C@H](O)[C@]2(CCN(Cc3ccc(OC(F)(F)F)cc3)C2)S1(=O)=O,-1.23
6,CN1C[C@H](O)[C@]2(CCN(Cc3ccc(F)c(F)c3)C2)S1(=O)=O,13.9
7,COc1ccc(CN2CC[C@@]3(C2)[C@H](O)CN(C)S3(=O)=O)cc1F,0.857
8,OC[C@H]1CN2CCN(c3ccccn3)C[C@@H]2[C@@H]1c1ccccc1,-5.54
9,O=S1(=O)[C@@H](c2ccccc2)[C@H](CO)CN1C1CC1,-1.65
10,O=C1c2ncccc2C(CCO)N1Cc1ccccc1 (configuration not stated),-3.47
11,CCCC(O)CN1CCC(=O)N(CCOC)Cc2cc3c(cc21)OCO3 (configuration not stated),18.9
12,COc1ccc2c(c1)CN(C)C(=O)CCN2CC(O)C(F)(F)F (configuration not stated),11.9
13,CCCC(O)CN1CCC(=O)N(C)Cc2cc(F)ccc21 (configuration not stated),18.5
14,CO[C@H]1C(=O)N(C)C2(CCNCC2)[C@@H]1C(=O)Nc1ccccc1,-10.2
15,CCOC(=O)N1[C@@H](c2ccco2)[C@@H](CO)C[C@]12CCCCNC2=O,-6.22
16,COc1ccc2c(c1)CN(Cc1ccco1)C(=O)CCN2,-10
17,O=C1CN(C(=O)C2CCCCC2)CC(O)CN1Cc1ccco1 (configuration not stated),-4.93
18,CC(C)CN1CC(O)CN(S(=O)(=O)c2ccccc2)CC1=O (configuration not stated),-10.6
19,O=C1CN(S(=O)(=O)c2ccc(F)cc2)CC(O)CN1CC1CC1 (configuration not stated),-9.49
20,CCCC1CN(CC(C)C)C(=O)c2cccnc2O1 (configuration not stated),44
21,CCNC(=O)N1CCC(OC)c2ccccc2N(CC(=O)NC)C(=O)C1 (configuration not stated),-2.79
22,CCOC(=O)C1CC2(CCCC2)N2CCC(=O)N12 (configuration not stated),0.137
23,O=C(c1ccco1)N1C(CN2CCOCC2)[C@]2(O)CC[C@H]1CC2 (some centres not stated),-6
24,COc1ccc(-c2cnc3c(c2)CN(C2CC2)C(=O)CCN3)cc1,-4.59
25,CCOC(=O)[C@@H]1[C@@H](c2ccccc2)CN2CCN(S(C)(=O)=O)C[C@H]12,-6.56
26,CNC(=O)[C@@H]1[C@H]2CNCCN2C[C@H]1c1ccccc1,-6.11

row,SMILES,cytotoxicity at 70.5 h [%]
1,CO[C@H]1CN(C)S(=O)(=O)[C@@]12CCN(Cc1ccccc1)C2,-3.43
2,CO[C@@H]1CN(c2ccccc2)S(=O)(=O)[C@@]12CCN(CC1CC1)C2,-6.15
3,CO[C@@H]1CN(c2ccccc2)S(=O)(=O)[C@@]12CCN(C(C)=O)C2,-10.5
4,CO[C@@H]1CN(c2ccccc2)S(=O)(=O)[C@@]12CCN(C(=O)N(C)C)C2,-5.12
5,CC(C)(C)OC(=O)N1CC(=O)N(Cc2ccco2)CC(O)C1 (configuration not stated),-7.3
6,COCC(O)CN1CCC(=O)N(CC2CC2)Cc2ccccc21 (configuration not stated),-3.32
7,COc1ccc(CN2CC(O)CN(C(=O)OCC(C)(C)C)CC2=O)cc1 (configuration not stated),-2.24
8,COc1ccc(C(=O)N2CC(=O)N(Cc3cccs3)CC(O)C2)cc1 (configuration not stated),-2.23
9,O=C1CN(C(=O)c2ccc(F)cc2)CC(O)CN1Cc1cccs1 (configuration not stated),1.6
10,COc1cccc(CN2CC(O)CN(C(=O)C3CCC3)CC2=O)c1OC (configuration not stated),-4.14
11,CC(C)(O)CN1CC(C)(C)CN(C(=O)CCc2ccccc2)CC1=O,-1.35
12,COCC(O)CN1CC(C)(C)CN(C(=O)CCc2ccccc2)CC1=O (configuration not stated),0.943
13,CCN1CC(C)(C)CN(C(=O)CCc2ccccc2)CC1=O,-5.69
14,COc1ccccc1C(=O)N1CC(=O)N(CC(C)C)CC(O)C1 (configuration not stated),-1.35
15,O=C1CN(C(=O)C2CCCCC2)CC(O)CN1Cc1ccc(Cl)cc1 (configuration not stated),-5.09
16,CSc1ccc(C(=O)N2CC(=O)N(CC(C)(C)C)CC(O)C2)cc1 (configuration not stated),-0.234
17,CSc1ccc(C(=O)N2CC(=O)N(CC3CC3)CC(O)C2)cc1 (configuration not stated),2.74
18,CSc1ccc(C(=O)N2CC(=O)N(Cc3cccs3)CC(O)C2)cc1 (configuration not stated),-6.27
19,CCOC(=O)N1CCC(OC)c2ccccc2N(C)C(=O)C1 (configuration not stated),1.4
20,COC1CCN(C(=O)C2CCCC2)CC(=O)N(C)c2ccccc21 (configuration not stated),22.2
21,COC1CCN(C(=O)COC(C)=O)CC(=O)N(C)c2ccccc21 (configuration not stated),-3.04
22,CN1CCN2C[C@@H](CO)[C@H](c3ccccc3)[C@H]2C1,-5.05
23,CNC(=O)[C@@H]1[C@@H](c2ccccc2)CN2CCN(Cc3cccs3)C[C@H]12,0.531
24,CNC(=O)[C@@H]1[C@@H](c2ccccc2)CN2CCN(Cc3ccco3)C[C@H]12,23.2
25,CNC(=O)[C@@H]1[C@H]2CN(Cc3ccccn3)CCN2C[C@H]1c1ccccc1,4.19
26,CNC(=O)[C@@H]1[C@H]2CN(Cc3ccoc3)CCN2C[C@H]1c1ccccc1,-0.196

row,SMILES,cytotoxicity at 70.5 h [%]
1,CC(=O)N1CCN2C[C@H](CO)[C@@H](c3ccccc3)[C@H]2C1,-6.55
2,COC(=O)N1CC2=CC(C)(C)COc3ccc(OC)c(c32)C1,1.21
3,COCCOC(=O)N1CC2=CC(C)(C)COc3ccc(OC)c(c32)C1,-1.64
4,CC(C)(C)OC(=O)N1CC(=O)N(CCc2ccccc2)CC(O)C1 (configuration not stated),30.2
5,COc1cccc(CN2CC(O)CN(C(=O)C3CC3)CC2=O)c1OC (configuration not stated),4.25
6,Cc1ccc(CN2CC(O)CN(C(=O)OCC(C)C)CC2=O)cc1 (configuration not stated),-4.78
7,COC1CCN(C(=O)CC2CCCC2)CC(=O)N(C)c2ccccc21 (configuration not stated),-0.0141
8,CC(C)c1ncncc1C(=O)N1CCCN(Cc2ccccc2)CC1,-15.3
9,c1ccc(Cc2noc(CN3CCc4c(ncn4C4CC4)C3)n2)cc1,11.8
10,Cc1cc(CN2CCN(C(=O)NCc3csc(C)n3)CC2)on1,-13
11,O=C(NCCNc1ncccn1)c1ccc(Br)cc1,-15.1
12,Cc1cc(CN2CCN(C(=O)NCc3cccs3)CC2)on1,-14.6
13,Cc1cccc(CN(Cc2nc3c(cnn3C)c(=O)[nH]2)C2CC2)c1,-6.88
14,CN(Cc1ccc2c(c1)OCCO2)Cc1nc2c(cnn2C)c(=O)[nH]1,-5.53
15,CC(C)OCCCNC(=O)CN1C=Nc2ccccc2S1(=O)=O,-7.79
16,CCCNC(=O)NC(=O)CN1C=Nc2ccccc2S1(=O)=O,-11.8
17,Cc1noc(Cl)c1CCC(=O)N1CCN(c2ccccc2)CC1,7.33
18,O=C(CN1C=Nc2ccccc2S1(=O)=O)NCC1CC1,-7.99
19,COc1cc(CCC(=O)NC2CCCN(C)C2)ccc1OCC(F)(F)F (configuration not stated),-7.07
20,CCc1ncncc1C(=O)N1CCN(Cc2ccsc2)CC1,7.59
21,Cc1cc(NC(=O)CN2CCCC2Cn2nc(C)nc2C)on1 (configuration not stated),-6.45
22,Cc1cnn(C2CN(CC(=O)NCCOc3ccccc3)C2)c1,-4.92
23,O=C(COC1CCCCC1)NS(=O)(=O)c1ccc2c(c1)OCCCO2,13.6
24,Cc1cc(CN2CCN(C(=O)NCCc3csc(C)n3)CC2)on1,-11.6
25,O=C(COC1CCCC1)NS(=O)(=O)c1ccc2c(c1)OCCCO2,-6.27
